# Measurements reported in US8546409B2, “Methods of treatment for solid tumors” (priority 2009, dated 2013).
# Experiments:
# [1] = test system: Akt phosphorylation in OVCAR-3 (ovarian cancer); assay: Phosphorylation of Akt in OVCAR-3 cells (FIG. 4); type: cell-based; conditions: OVCAR-3, 10 micromolar
# Source text: This distinguishes compound I from other known PI3K inhibitors in development for treatment of solid tumors, which are believed to act primarily at the p110α isoform or on p110α plus other isoforms, or even on all PI3Ks plus mTOR.
# HCT-15 = assay: NCI panel growth inhibition, HCT-15; type: cell-based; conditions: Homo sapiens, Colon Cancer
# Source text: (§1) Compound I has also been tested in a battery of tumor cell assays known as the NCI panel.
# in vivo = assay: in vivo; design: species or system mice; conditions: female, nu/nu, mouse
# Protocol: At this range, which was the effective dosage used in the tests shown in FIGS. 8 and 9, plasma concentration of compound I reaches about 5000-7000 ng/mL.
# Compound I was administered in a single dose at a rate of 30 mg/kg to each test subject, and plasma levels were monitored for 12 hours thereafter. Plasma levels of Compound I peaked around 2-4 hours after administration in each case, and had essentially returned to zero 8 hours after the single dose at this rate, as shown in FIG. 10. The peak plasma concentration for these subjects, after a single injection at the dose shown to be effective for inhibiting tumor growth of each xenograft (see the preceding examples, and FIGS. 8-9) were generally below about 7000 ng/mL.
# UACC-62 = assay: NCI panel growth inhibition, UACC-62; type: cell-based; conditions: Homo sapiens, Melanoma
# Source text: as §1
# T47D = assay: Tumor cell culture growth, optical density at 459 nm (FIG. 7), T47D; type: cell-based; conditions: 5-10 micromolar
# DU-145 = assay: NCI panel growth inhibition, DU-145; type: cell-based; conditions: Homo sapiens, Prostate
# Source text: as §1
# p110α = molecular target: T1, p110α (Mus musculus, UniProt P42337); assay: Cell-based p110α assay: PDGF-stimulated Akt phosphorylation in SW3T3 cells
# T1 construct: endogenous in cells; host or cells: SW3T3 cells
# T1 sequence (P42337 whole entry): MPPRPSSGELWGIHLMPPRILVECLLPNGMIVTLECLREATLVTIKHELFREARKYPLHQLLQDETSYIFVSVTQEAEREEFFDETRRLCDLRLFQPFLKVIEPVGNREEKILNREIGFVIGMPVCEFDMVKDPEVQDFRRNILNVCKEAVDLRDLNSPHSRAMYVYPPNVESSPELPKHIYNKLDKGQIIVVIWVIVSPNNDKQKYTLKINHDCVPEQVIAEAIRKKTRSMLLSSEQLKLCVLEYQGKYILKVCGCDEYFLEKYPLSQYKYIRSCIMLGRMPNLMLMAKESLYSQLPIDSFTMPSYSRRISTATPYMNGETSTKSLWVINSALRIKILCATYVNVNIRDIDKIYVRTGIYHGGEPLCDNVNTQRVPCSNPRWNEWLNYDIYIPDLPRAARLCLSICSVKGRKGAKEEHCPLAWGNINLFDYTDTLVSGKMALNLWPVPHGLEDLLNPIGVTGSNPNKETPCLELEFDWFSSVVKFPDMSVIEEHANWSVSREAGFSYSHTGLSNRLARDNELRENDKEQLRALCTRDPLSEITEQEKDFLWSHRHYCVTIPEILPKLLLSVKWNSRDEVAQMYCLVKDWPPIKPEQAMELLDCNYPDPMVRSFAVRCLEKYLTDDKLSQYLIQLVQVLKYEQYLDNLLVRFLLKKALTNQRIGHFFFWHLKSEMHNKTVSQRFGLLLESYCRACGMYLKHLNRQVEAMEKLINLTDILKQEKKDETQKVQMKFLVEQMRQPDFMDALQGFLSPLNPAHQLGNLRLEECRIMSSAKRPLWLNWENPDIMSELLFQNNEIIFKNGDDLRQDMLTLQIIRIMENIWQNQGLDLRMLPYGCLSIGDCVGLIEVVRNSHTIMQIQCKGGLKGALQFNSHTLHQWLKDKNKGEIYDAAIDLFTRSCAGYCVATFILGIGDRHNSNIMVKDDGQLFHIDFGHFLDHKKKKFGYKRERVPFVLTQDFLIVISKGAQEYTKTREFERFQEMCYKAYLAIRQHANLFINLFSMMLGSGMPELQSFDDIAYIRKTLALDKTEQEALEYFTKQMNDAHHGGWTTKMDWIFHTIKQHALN
# T1 sequence (P26450 whole entry partner): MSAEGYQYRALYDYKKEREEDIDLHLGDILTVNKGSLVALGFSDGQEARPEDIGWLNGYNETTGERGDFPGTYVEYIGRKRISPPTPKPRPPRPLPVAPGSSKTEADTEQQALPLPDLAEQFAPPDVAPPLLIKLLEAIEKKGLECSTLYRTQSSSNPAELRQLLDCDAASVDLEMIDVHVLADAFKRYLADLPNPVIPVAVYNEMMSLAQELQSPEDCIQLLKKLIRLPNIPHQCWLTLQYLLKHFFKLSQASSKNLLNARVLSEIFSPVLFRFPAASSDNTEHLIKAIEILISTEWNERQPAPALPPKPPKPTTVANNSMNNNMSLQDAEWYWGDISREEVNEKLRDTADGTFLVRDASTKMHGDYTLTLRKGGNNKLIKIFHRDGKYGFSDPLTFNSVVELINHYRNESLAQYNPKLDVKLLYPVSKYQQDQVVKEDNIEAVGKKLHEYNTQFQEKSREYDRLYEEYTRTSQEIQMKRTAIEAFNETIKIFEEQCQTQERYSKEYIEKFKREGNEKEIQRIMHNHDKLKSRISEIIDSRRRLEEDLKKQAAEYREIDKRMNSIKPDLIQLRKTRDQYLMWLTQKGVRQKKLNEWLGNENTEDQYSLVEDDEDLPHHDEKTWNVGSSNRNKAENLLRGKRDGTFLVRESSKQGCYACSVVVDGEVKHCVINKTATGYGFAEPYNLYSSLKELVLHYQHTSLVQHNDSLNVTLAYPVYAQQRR
# Protocol: The p110α assay used SW3T3 cells stimulated by PDGF, and p110 kinase activity was measured by Akt phosphorylation. The p110β activity was measured by lysophosphatidic acid stimulation of Akt phosphorylation in mouse embryonic fibroblasts. The activity of p110δ was measured by anti-FcεR1 antibody cross linking stimulation of CD63 movement to the surface of basophils. Finally, the activity of p110γ was measured by fMLP stimulation of CD63 antigen movement to the cell surface of basophils.
# MCF7 = assay: NCI panel growth inhibition, MCF7; type: cell-based; conditions: Homo sapiens, Breast Cancer
# Source text: as §1
# NCI-H460 = assay: NCI panel growth inhibition, NCI-H460; type: cell-based; conditions: Homo sapiens, Non-Small Cell Lung Cancer
# Source text: as §1
# NCI-H226 = assay: NCI panel growth inhibition, NCI-H226; type: cell-based; conditions: Homo sapiens, Non-Small Cell Lung Cancer
# Source text: as §1
# DNA-PK = DNA-PK (Homo sapiens, UniProt P78527); assay: Inhibition of kinase activity of other lipid kinases, DNA-PK; type: biochemical; conditions: read-out: IC-50 for inhibition of kinase activity, DNA-PK
# TK-10 = assay: NCI panel growth inhibition, TK-10; type: cell-based; conditions: Homo sapiens, Renal
# Source text: as §1
# A549 = assay: NCI panel growth inhibition, A549; type: cell-based; conditions: Homo sapiens, Non-Small Cell Lung Cancer
# Source text: as §1
# EKVX = assay: NCI panel growth inhibition, EKVX; type: cell-based; conditions: Homo sapiens, Non-Small Cell Lung Cancer
# Source text: as §1
# SK-MEL-5 = assay: NCI panel growth inhibition, SK-MEL-5; type: cell-based; conditions: Homo sapiens, Melanoma
# Source text: as §1
# OVCAR-3 [2] = assay: NCI panel growth inhibition, OVCAR-3; type: cell-based; conditions: Homo sapiens, Ovarian
# Source text: as §1
# mTOR = mTOR (Homo sapiens, UniProt P42345); assay: Inhibition of kinase activity of other lipid kinases, mTOR; type: biochemical; conditions: read-out: IC-50 for inhibition of kinase activity, mTOR
# SK-MEL-2 = assay: NCI panel growth inhibition, SK-MEL-2; type: cell-based; conditions: Homo sapiens, Melanoma
# Source text: as §1
# OVCAR-3 [3] = assay: Tumor cell culture growth, optical density at 459 nm (FIG. 7), OVCAR-3; type: cell-based; conditions: OVCAR-3, 5-10 micromolar
# NCI-H522 = assay: NCI panel growth inhibition, NCI-H522; type: cell-based; conditions: Homo sapiens, Non-Small Cell Lung Cancer
# Source text: as §1
# SK-OV-3 = assay: NCI panel growth inhibition, SK-OV-3; type: cell-based; conditions: Homo sapiens, Ovarian
# Source text: as §1
# [4] = mouse
# Source text: Bioavailability of Compound I upon oral administration is especially good; even compared to other quinazolinones of similar structures. For example, FIG. 6 illustrates that Compound I produces higher plasma concentrations of drug than another quinazolinone compound having a similar structure (Compound B). […] The degree of difference in oral bioavailability between Compound I and Compound B observed in this test is surprising.
# Treatments of the invention typically involve administration of compound Ito a subject in need of treatment on a daily basis for at least one week or more than one week, often for 2-4 weeks, and sometimes for 1-3 months or more. The half-life of Compound I in vivo in mice and rats is several hours—see FIG. 6. It is thus sometimes desirable to administer compound I in multiple doses each day, in order to maintain efficacious plasma levels over a prolonged period of time. Administration may be done in two doses per day, or three doses per day, or in some embodiments, four doses per day or more, particularly when Compound I is administered orally. Alternatively, Compound I can be administered intravenously at a rate that maintains an efficacious plasma level for a prolonged period of time. Suitably, it would be administered at a rate to achieve a plasma level of at least about 1 micromolar, or at least 3 micromolar, or at least 5 micromolar.
# A498 = assay: NCI panel growth inhibition, A498; type: cell-based; conditions: Homo sapiens, Renal
# Source text: as §1
# NCI-H23 = assay: NCI panel growth inhibition, NCI-H23; type: cell-based; conditions: Homo sapiens, Non-Small Cell Lung Cancer
# Source text: as §1
# LOX IMVI = assay: NCI panel growth inhibition, LOX IMVI; type: cell-based; conditions: Homo sapiens, Melanoma
# Source text: as §1
# SF-539 = assay: NCI panel growth inhibition, SF-539; type: cell-based; conditions: Homo sapiens, CNS Cancer
# Source text: as §1
# OVCAR-8 = assay: NCI panel growth inhibition, OVCAR-8; type: cell-based; conditions: Homo sapiens, Ovarian
# Source text: as §1
# UO-31 = assay: NCI panel growth inhibition, UO-31; type: cell-based; conditions: Homo sapiens, Renal
# Source text: as §1
compound,measurement,setting,value
C[C@H](Nc1ncnc2[nH]cnc12)c1nc2ccc(F)cc2c(=O)n1-c1ccccc1 [Compound I],Phosphorylation of Akt,[1],inhibits phosphorylation of Akt
same,GI50,HCT-15,30.3 µM
same,AUC,in vivo,"18,000 ng-h/mL"
same,Time after which plasma levels had essentially returned to zero,in vivo; 30 mg/kg,8 h
same,Time of peak plasma level after administration,in vivo; 30 mg/kg,2 to 4 h
same,AUC,in vivo; AUC,15000 ng·h/mL
same,GI50,UACC-62,1.43 µM
same,Inhibition of tumor cell culture growth,T47D,strong inhibition of growth
same,GI50,DU-145,1.35 µM
same,EC50,p110α,> 20 µM
same,GI50,MCF7,2.54 µM
same,GI50,NCI-H460,25.7 µM
same,GI50,NCI-H226,100 µM
same,IC50,DNA-PK,13 µM
same,GI50,TK-10,1.24 µM
same,GI50,A549,20.7 µM
same,GI50,EKVX,16.7 µM
same,GI50,SK-MEL-5,31.3 µM
same,GI50,OVCAR-3 [2],0.316 µM
same,IC50,mTOR,100 µM
same,GI50,SK-MEL-2,100 µM
same,Inhibition of tumor cell culture growth,OVCAR-3 [3],strong inhibition of growth
same,GI50,NCI-H522,51.8 µM
same,GI50,SK-OV-3,4.02 µM
same,Half-life in vivo,[4],several hours
same,Peak plasma level compared to Compound B,"[4]; in vivo, po",higher peak plasma level
same,Plasma level maintained for several hours,"[4]; in vivo, po, 20 mg/kg",about 500 ng/mL
same,GI50,A498,0.615 µM
same,GI50,NCI-H23,100 µM
same,GI50,LOX IMVI,36.1 µM
same,GI50,SF-539,15.9 µM
same,GI50,OVCAR-8,44.6 µM
same,GI50,UO-31,2.01 µM
